Results reported in article PMC10660337, “Mutate and Conjugate: A Method to Enable Rapid In-Cell Target Validation” (ACS Chemical Biology, 2023).
Several values for one entry are separate records, joined by “and”; a condition that tells them apart may be missing. Equal entries are not always repeated. Where two headings read alike, the source gives them in different places.

What was measured:
Format in all cases: binding
BRD4(1)^L94C [1] = biological target: T1, BRD4(1)^L94C (Homo sapiens, UniProt O60885, L94C); test: Protein LCMS labeling assay 1; conditions: for Labeled Protein (%) L94C 1 h / Labeled Protein (%) L94C 4 h: 50 μM compound, 10 µM protein, 37 °C, mean of three ± s.e.m., ND = not detectable
T1 construct: Characterization of His6-BRD4(1)L94C; made in house; host or cells: E. coli BL21 (DE3)
Protocol: (§1) The resulting library of 22 fragments was screened for BRD4(1)^L94C binding at a concentration of 50 μM using a protein LCMS assay (referred to as “labeling assay 1”). […] To assess the selectivity of the fragments for the labeling of C94, hits were also screened against BRD4(1)^WT under the same conditions. […] The acrylamide-based fragment, 12, labeled 98% of BRD4(1)^L94C after 4 h. While 95% of the protein was labeled once, 3% of the protein was labeled twice (Figure 5D). […] Fragment 14, designed by appending a β-dimethylaminomethyl acrylamide to the structure of 12, led to 74% of singly labeled BRD4(1)^L94C after 4 h with no labeling of BRD4(1)^WT observed (Table 1 and Figure 5E). […] However, only 9.9% of labeled BRD4(1)^L94C was observed, substantially lower than the 56% labeling observed for the corresponding 3-methyl regioisomer 10 (Table 1). […]
(§2) Assays were performed in 1.5 mL Eppendorf tubes at 37 °C and gently shaken, unless otherwise stated.
(§3) Experiments were performed in a protein LCMS assay buffer, with 10 µM protein, and 50 µM of the desired compound with a final DMSO concentration of 0.5% (Table S16). Time points were taken at 0, 1 and 4 h, unless otherwise stated, where a 20 µL sample of the reaction mix was taken, diluted with 100 µL Milli-Q water, and flash frozen. Samples were thawed immediately prior to LCMS analysis on a Waters Xevo G2-S system (Waters) fitted with a ProSwift™ RP-2H PSDVB Reversed Phase HPLC Column (Thermofisher). Data was analysed and processed using MassLynx. The total ion chromatograms (TIC) were extracted (region containing protein) and the summed scans were deconvoluted (using MaxEnt). Covalent labeling was calculated using intensities of the unlabeled and labeled protein (Equation 1). Figures were made using GraphPad Prism 7.0.
(§4) Table S16. Buffer composition for protein LCMS.
(§5) Buffer Reagent Composition Amount per 1 L
(§6) Protein LCMS Assay Buffer HEPES 25 mM 6.0 g
(§7) Protein Labelling = Intensity of Labelled Peak × 100

BRD4(1)^WT [2] = biological target: T2, BRD4(1)^WT (Homo sapiens, UniProt O60885); test: Protein LCMS labeling assay 1; conditions: for Labeled Protein (%) WT 4 h: 50 μM compound, 10 µM protein, 37 °C, mean of three ± s.e.m., ND = not detectable; for Covalent labeling of purified BRD4(1)^WT detected using LCMS: after 20 h incubation
T2 construct: Characterization of His6-BRD4(1)WT; made in house; host or cells: E. coli BL21 (DE3)
Protocol: Before introducing a Cys mutant into the first bromodomain of BRD4 [BRD4(1)], we wanted to rule out the possibility that the native Cys residues C125 and C136 (Figures 2A and S1), would react with electrophilic fragments. To test this, we incubated two KAc-mimicking methylisoxazole-based reactive fragments (1 and 2, Figure 2C) with purified BRD4(1)^WT.
as §1, §2, §3, §4, §5, §6, §7

BRD4(1)^L94C [3] = biological target: T1, BRD4(1)^L94C; test: Fluorescent labeling of purified protein (CuAAC with TAMRA-PEG3-azide, in-gel fluorescence); conditions: 50 μM probe, 10 μM protein, 4 h, 37 °C, then CuAAC 1 h
Protocol: When 28, 29, 30, and 42 were incubated with either purified BRD4(1)^L94C or BRD4(1)^WT and subjected to a copper(I)-catalyzed alkyne–azide click reaction (CuAAC) reaction with the fluorescent TAMRA-PEG3-azide dye, all clickable probes labeled the mutant protein and could be visualized using fluorescence imaging of a gel (Figure 6).
Figure 6 Clickable probes 28, 29, 30, and 42 covalently label BRD4(1)^L94C and undergo a subsequent CuAAC reaction with TAMRA-PEG3 azide to fluorescently label the protein, as shown by in-gel fluorescence imaging. Compounds 28, 29, 30, 41, and 42 (50 μM) were incubated with purified BRD4(1)^L94C or BRD4(1)^WT (10 μM) for 4 h at 37 °C, followed by CuAAC reaction with TAMRA-PEG3 azide for 1 h and separation of components by SDS-PAGE. For all compounds other than 30, only labeling of BRD4(1)^L94C was observed. […]
Fluorescent labeling of purified proteins
Assays were performed in 1.5 mL Eppendorf tubes at 37 °C, and gently shaken, unless otherwise stated.
The desired click probe (50 µM) was incubated with protein (10 µM) in protein LCMS buffer for 4 h, after which TAMRA-PEG3-Azide (200 µM), TCEP·HCl (1 mM), TBTA (100 µM), and CuSO4 (1 mM) were added and incubated for a further 1 h at room temperature in the dark. A 25 µL sample of the […]
reaction mix was taken and 8 µL of Lamelli buffer added, and the samples denatured by heating at 95 °C for 10 min. Samples were separated by gel electrophoresis on NuPAGE™ 4–12%, Bis-Tris precast polyacrylamide gels (Thermofisher). Following electrophoresis, gels were stained for 15 min with InstantBlueTM Coomasie® stain (Abcam), destained, and imaged using Bio-rad molecular imager.
Bio-rad Image Lab 6.1 was used to process the data. […]
InstantBlueTM Coomasie® stain (Abcam), destained, and imaged using Bio-rad molecular imager. […]
MEM media. Cells were then harvested and lysed using the previously described protocol above. […]

BRD4(1)^WT [4] = biological target: T2, BRD4(1)^WT; test: AlphaScreen H4_1–20(KAc)4 peptide displacement
Protocol: (§8) Dose response AlphaScreen™
(§9) The peptide (Table S17) was supplied at >95% purity by GenScript and was stored as 1 mM stocks in […]
(§10) Table S17. Amino acid sequences of peptides used in AlphaScreen™.
(§11) Peptide Amino Acid Sequence […]
(§12) The assay buffer (Table S18, pH 7.6) was filtered through a 0.22 μm filter before use. The buffer is stored at 4 °C as a 5× solution without bovine serum albumin (BSA), which was added on the day of use. The compounds, proteins, and peptides were dispensed into a ProxiPlate-384 Plus (Perkin Elmer) using a Thermo-Fisher electronic multi-channel pipette. For the incubation steps, the plates were sealed, shaken for 10 seconds at 600 rpm on a plate oscillator, and incubated at room temperature in darkness for 30 min or 3.5 h. Ni2+ chelate acceptor and streptavidin donor beads were prepared as a mixture in a 1:300 dilution (0.007 mg/mL final assay concentration, added to the plates and incubated for a further 30 min at room temperature. Plates were read using a SynergyTM 2 MultiMode Microplate Reader using the inbuilt AlphaScreen™ 384 ProxiPlate function: excitation 680 nm, 0.18 sec; emission […]
(§13) Table S18. Composition of assay buffer used in AlphaScreen™ experiments, adjusted to pH 7.6 using an aqueous NaOH […]
(§14) Reagent Composition Mass (mg) for 50 mL
(§15) 50 mM DMSO stock solutions of the compounds were serially diluted, and dispensed into wells (5 μL).
(§16) The protein-peptide mixes (7 μL) for each combination were prepared following the specified final assay concentration (Table S19), and dispensed into wells. Assay beads (8 μL) were added to attain a final assay volume of 20 μL. Dose response curves were obtained for each compound in triplicate, with serial 1:2 dilutions. Data was processed by fitting a four-parameter equation (Equation 2) to calculate IC50 values using Prism software.
(§17) Table S19. Final assay concentrations of each peptide-protein combination.
(§18) Protein Peptide Protein FAC (nM) Peptide FAC (nM)
(§19) Response = Bottom + Top − Bottom

BRD4(1)^L94C [5] = biological target: T1, BRD4(1)^L94C; test: AlphaScreen H4_1–20(KAc)4 peptide displacement
Protocol: Under these conditions, all three fragments displaced the peptide from BRD4(1)^L94C, which is consistent with the fragments binding to BRD4(1)^L94C in the expected location (Table 2). […] The longer the mutant protein and electrophile are incubated together, the more time there is for a covalent interaction to occur. […]
as §8, §9, §10, §11, §12, §13, §14, §15, §16, §17, §18, §19

[6] = 4 h incubation at RT, mean of three ± s.e.m.
[7] = IC50 (μM) L94C 1 h, 1 h incubation at RT, mean of three ± s.e.m.
[8] = IC50 (μM) L94C 4 h, 4 h incubation at RT, mean of three ± s.e.m.

SMILES | Labeled Protein (%) L94C 1 h (BRD4(1)^L94C [1]) | Labeled Protein (%) L94C 4 h (BRD4(1)^L94C [1]; 4 h) | Labeled Protein (%) WT 4 h (BRD4(1)^WT [2]) | further results
C#CC(=O)c1cc(C)on1 [Compound 9] | 60 ± 0.7% | 58 ± 1.9% | 22 ± 1.4% | 
Cc1cc(NC(=O)CCl)on1 [Compound 21] | 10 ± 0.7% | 32 ± 0.9% |  | 
Cc1cc(CCl)on1 [Compound 1] |  |  |  | Covalent labeling of purified BRD4(1)^WT detected using LCMS (BRD4(1)^WT [2]): no covalent labeling
C#CC(=O)Nc1cc(C)no1 [Compound 19] | 3.4 ± 0.2% | 15 ± 1.3% |  | 
C#CC(=O)c1cc(C)no1 [Compound 8] | 44 ± 0.6% | 42 ± 1.4% | 29 ± 0.8% | 
Cc1cc(CCl)no1 [Compound 2] |  |  |  | Covalent labeling of purified BRD4(1)^WT detected using LCMS (BRD4(1)^WT [2]): no covalent labeling
C=CC(=O)c1cc(C)no1 [Compound 4] | 100 ± 0.0% | 100 ± 0.0% | 83 ± 1.2% | 
Cc1noc(C)c1-c1cc(O)cc(C(O)c2cccnc2)c1 (centres unmarked) [OXFBD04 (3), reference compound] |  |  |  | IC50 (BRD4(1)^WT [4]; equals the 4 h value of Figure S14): 0.183 ± 0.025 µM; IC50 (BRD4(1)^L94C [5]; IC50, prevention of H4_1–20(KAc)4 peptide binding to BRD4(1)^L94C, equals the 4 h value of Figure S13): 0.08 ± 0.009 µM; IC50 (BRD4(1)^L94C [5]; read-out: IC50 (μM) L94C 1 h, 1 h incubation at RT, mean of three ± s.e.m.): 0.059 ± 0.11 µM
Cc1cc(NC(=O)/C=C/CN(C)C)on1 [Compound 13] | 16 ± 0.7% | 52% and 52 ± 0.9% |  | 

Continued, in another order:

Labeled Protein (%) L94C 1 h (BRD4(1)^L94C [1]) | Labeled Protein (%) L94C 4 h (BRD4(1)^L94C [1]; 4 h) | Labeled Protein (%) WT 4 h (BRD4(1)^WT [2]) | SMILES | further results
7.6 ± 0.4% | 9.9% and 9.9 ± 0.4% |  | C=CC(=O)Nc1cc(C)on1 [Compound 11] | 
100 ± 0.0% | 100 ± 0.0% |  | C=CC(=O)c1onc(C)c1-c1ccccc1 [Compound 6] | 
5.9 ± 0.3% | 22 ± 0.4% |  | Cc1noc(NC(=O)CCl)c1-c1ccccc1 [Compound 22] | 
21 ± 1.8% | 56% and 56 ± 0.9% |  | C=CC(=O)Nc1cc(C)no1 [Compound 10] | 
49 ± 2.0% |  |  | C#CCOc1ccc(-c2c(C)noc2NC(=O)/C=C/CN(C)C)cc1 [Compound 29] | Labeling of purified BRD4(1)^L94C, in-gel fluorescence (BRD4(1)^L94C [3]): high levels
59 ± 1.9% |  |  | C#Cc1ccc(-c2c(C)noc2NC(=O)/C=C/CN(C)C)cc1 [Compound 28] | Labeling of purified BRD4(1)^L94C, in-gel fluorescence (BRD4(1)^L94C [3]): high levels
100.0 ± 0.0% | 100.0 ± 0.0% | 86 ± 7.4% | C=CC(=O)c1cc(C)on1 [Compound 5] | 
27 ± 2.2% | 74% and 74 ± 2.6% | no labeling | Cc1noc(NC(=O)/C=C/CN(C)C)c1-c1ccccc1 [Compound 14] | IC50 (BRD4(1)^WT [4]; [6]): > 100 µM; IC50 (BRD4(1)^L94C [5]; [7]): 8.69 µM and 8.7 µM; IC50 (BRD4(1)^L94C [5]; [8]): 4.45 µM and 4.4 µM
 | 7.8 ± 0.2% |  | CC#CC(=O)Nc1cc(C)no1 [Compound 20] | 
70 ± 0.6% | 98% and 98 ± 0.2% | 3% and 3.0 ± 0.2% | C=CC(=O)Nc1onc(C)c1-c1ccccc1 [Compound 12] | IC50 (BRD4(1)^WT [4]; [6]): > 100 µM; BRD4(1)^L94C protein labeled once (BRD4(1)^L94C [1]; 50 μM, 4 h): 95%; BRD4(1)^L94C protein labeled twice (BRD4(1)^L94C [1]; 50 μM, 4 h): 3%; IC50 (BRD4(1)^L94C [5]; [7]): 5.83 µM and 5.8 µM; IC50 (BRD4(1)^L94C [5]; [8]): 1.27 µM and 1.3 µM
